Reference: PubChem BioAssay AID328 (DTP/NCI, 2004)
Several values for one entry are separate records, joined by “and”; a condition that tells them apart may be missing. Identical values can stand only once. Toxic doses and inconclusive results are not listed.

Test system: BDF1 mice, P388 leukemia ip, median survival T/C
Test: NCI In Vivo Anticancer Drug Screen. Data for tumor model P388 Leukemia (intraperitoneal) in B6D2F1 (BDF1) mice
Details: endpoint: median survival time, higher = longer survival
In short: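 Each value expresses how treatment altered survival: treated-mouse outcome over vehicle-mouse outcome, both groups bearing the transplanted tumour.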

[1] = dose: 100.0 mg/kg/injection, schedule: Q04DX003 (ip), vehicle: Klucel (hydroxypropylcellulose) (HPC)
[2] = dose: 100.0 mg/kg/injection, schedule: Q01DX009 (ip), vehicle: saline with Tween-80
[3] = dose: 200.0 mg/kg/injection, schedule: Q01DX009 (ip), vehicle: saline with Tween-80

C[C@]12C=CC(=O)C=C1[C@@H](F)C[C@@H]1[C@@H]2[C@@H](O)C[C@@]2(C)[C@H]1CC[C@]2(O)C(=O)CO
T/C (dose: 25.0 mg/kg/injection, schedule: Q01DX009 (ip), vehicle: Klucel (hydroxypropylcellulose) (HPC)): 104 % of control
T/C (dose: 50.0 mg/kg/injection, schedule: Q01DX009 (ip), vehicle: Klucel (hydroxypropylcellulose) (HPC)): 96 % of control
T/C (dose: 100.0 mg/kg/injection, schedule: Q01DX009 (ip), vehicle: Klucel (hydroxypropylcellulose) (HPC)): 91 % of control and 108 % of control
T/C [1]: 100 % of control
T/C (dose: 200.0 mg/kg/injection, schedule: Q04DX003 (ip), vehicle: Klucel (hydroxypropylcellulose) (HPC)): 104 % of control
T/C (dose: 400.0 mg/kg/injection, schedule: Q04DX003 (ip), vehicle: Klucel (hydroxypropylcellulose) (HPC)): 95 % of control

OC1C=CC2C3C=CC(C3)C12 (stereo not drawn)
T/C (dose: 100.0 mg/kg/injection, schedule: Q04DX003 (ip), vehicle: saline): 96 % of control
T/C (dose: 200.0 mg/kg/injection, schedule: Q04DX003 (ip), vehicle: saline): 92 % of control
T/C (dose: 400.0 mg/kg/injection, schedule: Q04DX003 (ip), vehicle: saline): 103 % of control

Cc1cc(=O)oc2c(N)nccc12
T/C (dose: 12.5 mg/kg/injection, schedule: Q01DX005 (ip), vehicle: saline with Tween-80): 121 % of control

COCCCn1c(C(Cl)(Cl)Cl)nn2c(=O)c3ccccc3nc2c1=O
T/C [2]: 87 % of control
T/C [3]: 90 % of control

O=C(O)c1c2c(nc3ccccc13)Cc1ccccc1-2
T/C (dose: 12.5 mg/kg/injection, schedule: Q01DX009 (ip), vehicle: water): 96 % of control and 97 % of control
T/C (dose: 25.0 mg/kg/injection, schedule: Q01DX009 (ip), vehicle: saline): 111 % of control
T/C (dose: 25.0 mg/kg/injection, schedule: Q01DX009 (ip), vehicle: water): 88 % of control and 114 % of control
T/C (dose: 50.0 mg/kg/injection, schedule: Q01DX009 (ip), vehicle: saline): 110 % of control
T/C (dose: 50.0 mg/kg/injection, schedule: Q01DX009 (ip), vehicle: water): 119 % of control
T/C (dose: 90.0 mg/kg/injection, schedule: Q01DX009 (ip), vehicle: Klucel (hydroxypropylcellulose) (HPC)): 163 % of control
T/C (dose: 100.0 mg/kg/injection, schedule: Q01DX009 (ip), vehicle: water): 173 % of control and 176 % of control
T/C (dose: 133.0 mg/kg/injection, schedule: Q01DX009 (ip), vehicle: Klucel (hydroxypropylcellulose) (HPC)): 186 % of control
T/C (dose: 200.0 mg/kg/injection, schedule: Q01DX009 (ip), vehicle: Klucel (hydroxypropylcellulose) (HPC)): 163 % of control
T/C (dose: 200.0 mg/kg/injection, schedule: Q01DX009 (ip), vehicle: water): 187 % of control

Cn1c(CS)nc2ccccc21
T/C (dose: 12.5 mg/kg/injection, schedule: Q04DX003 (ip), vehicle: Klucel (hydroxypropylcellulose) (HPC)): 104 % of control
T/C (dose: 25.0 mg/kg/injection, schedule: Q04DX003 (ip), vehicle: Klucel (hydroxypropylcellulose) (HPC)): 102 % of control
T/C (dose: 50.0 mg/kg/injection, schedule: Q04DX003 (ip), vehicle: Klucel (hydroxypropylcellulose) (HPC)): 105 % of control
T/C [1]: 96 % of control

Cc1cc(Cl)c(C)c(Cl)c1Cl
T/C [2]: 90 % of control
T/C [3]: 95 % of control
T/C (dose: 400.0 mg/kg/injection, schedule: Q01DX009 (ip), vehicle: saline with Tween-80): 86 % of control

OCCN1CCOCC1
T/C (dose: 100.0 mg/kg/injection, schedule: Q01DX009 (ip), vehicle: saline): 109 % of control
T/C (dose: 200.0 mg/kg/injection, schedule: Q01DX009 (ip), vehicle: saline): 109 % of control
T/C (dose: 400.0 mg/kg/injection, schedule: Q01DX009 (ip), vehicle: saline): 109 % of control

COC(=O)C1=C(C)NC(C)=C(C(=O)OC)C(N2C(=O)CCC2=O)C1 (stereo not drawn)
T/C (dose: 12.5 mg/kg/injection, schedule: Q01DX009 (ip), vehicle: saline with Tween-80): 97 % of control
T/C (dose: 25.0 mg/kg/injection, schedule: Q01DX009 (ip), vehicle: saline with Tween-80): 94 % of control
T/C (dose: 50.0 mg/kg/injection, schedule: Q01DX009 (ip), vehicle: saline with Tween-80): 95 % of control and 123 % of control
T/C [2]: 94 % of control and 107 % of control
T/C [3]: 107 % of control

CCOc1cccc(OCC)c1C
T/C (dose: 75.0 mg/kg/injection, schedule: Q01DX009 (ip), vehicle: Klucel (hydroxypropylcellulose) (HPC)): 100 % of control
T/C (dose: 150.0 mg/kg/injection, schedule: Q01DX009 (ip), vehicle: Klucel (hydroxypropylcellulose) (HPC)): 100 % of control
T/C (dose: 300.0 mg/kg/injection, schedule: Q01DX009 (ip), vehicle: Klucel (hydroxypropylcellulose) (HPC)): 100 % of control

c1ccc(OCC2CO2)cc1 (stereo not drawn)
T/C [2]: 108 % of control and 118 % of control
T/C (dose: 100.0 mg/kg/injection, schedule: Q04DX003 (ip), vehicle: saline with Tween-80): 110 % of control
T/C [3]: 108 % of control and 112 % of control
T/C (dose: 200.0 mg/kg/injection, schedule: Q04DX003 (ip), vehicle: saline with Tween-80): 115 % of control
T/C (dose: 400.0 mg/kg/injection, schedule: Q04DX003 (ip), vehicle: saline with Tween-80): 110 % of control

CCOC(=O)C/C(C)=N/NC(=O)C(=O)N/N=C(\C)CC(=O)OCC
T/C (dose: 75.0 mg/kg/injection, schedule: Q01DX009 (ip), vehicle: saline with Tween-80): 113 % of control
T/C (dose: 150.0 mg/kg/injection, schedule: Q01DX009 (ip), vehicle: saline with Tween-80): 96 % of control
T/C (dose: 300.0 mg/kg/injection, schedule: Q01DX009 (ip), vehicle: saline with Tween-80): 96 % of control
